The values below come from ChEMBL document CHEMBL4699530, “Isolation, Structural Elucidation, and Anti-HIV Activity of Daphnane Diterpenoids from Daphne odora” (J Nat Prod, 2020).

The structures appear in SMILES notation. A value given as a limit tells only on which side of the number the result lay.

The test system of assay [1] is Human immunodeficiency virus. Kind of assay: Antiviral activity against HIV NL4-3 infected in human MT4 cells assessed as suppression of viral replication by measuring reduction in p24 level measured after 4 days by ELISA method. Format: functional, organism-based. Conditions: Human immunodeficiency virus 1, NL4-3, MT4, 96 h.
In a further assay the test system is MT4. Kind of assay: Cytotoxicity against human MT4 cells assessed as reduction in cell viability incubated for 4 days by CellTiter-Glo assay. Format: cell-based. The settings on record: MT4, 96 h.

As for `C=C(C)[C@]1(O)C[C@@H](C)[C@@]2(O)[C@@H]([C@H]3O[C@@]4([C@H](O)[C@]3(O)COC(=O)c3ccccc3)[C@@H](OC(=O)/C=C/C=C/C=C/CCC)[C@@H](C)C[C@@H]24)[C@H]1O`, the EC50 in assay [1] was greater than 34 nM. For the same compound, the IC50 with MT4 was greater than 34 nM.
For `C=C(C)[C@@]1(O)[C@H](OC(=O)/C=C/C=C/C=C/CCC)[C@@H]2[C@@H]3O[C@]3(CO)[C@@H](O)[C@]3(O)C(=O)C(C)=C[C@H]3[C@@]2(O)[C@H](C)[C@H]1OC(=O)/C=C/c1ccc(O)c(OC)c1`, the EC50 in assay [1] is greater than 34 nM. The IC50 in the assay on MT4 was greater than 34 nM.
On to `C=C(C)[C@@]12O[C@@]3(/C=C/C=C/C=C/CCC)O[C@@H]1[C@@H]1[C@@H]4O[C@]4(CO)[C@@H](O)[C@]4(O)C(=O)C(C)=C[C@H]4[C@@]1(O3)[C@H](C)[C@H]2OC(=O)c1ccccc1`, for which the EC50 in assay [1] amounted to 1.9 nM. Also, in the assay with MT4, the IC50 is greater than 34 nM.
In the same order, the values of `C=C(C)[C@@]12O[C@@]3(c4ccccc4)O[C@@H]1[C@@H]1[C@@H]4O[C@]4(CO)[C@@H](O)[C@]4(O)C(=O)C(C)=C[C@H]4[C@@]1(O3)[C@H](C)[C@H]2OC(=O)/C=C/C=C/C=C/CCC` are 2.3 nM and greater than 34 nM.
Taken in the same sequence, the figures for `C=C(C)[C@@]12O[C@@]3(/C=C/C=C/C=C/CCC)O[C@@H]1[C@@H]1[C@@H]4O[C@]4(CO)[C@@H](O)[C@]4(O)C(=O)C(C)=C[C@H]4[C@@]1(O3)[C@H](C)[C@H]2OC(=O)/C=C/c1ccc(O)c(OC)c1` were 4.5 nM and greater than 34 nM.
In the same order, the values of `C=C(C)[C@@]1(O)[C@H](OC(=O)/C=C/C=C/CCCCC)[C@@H]2[C@@H]3O[C@]3(CO)[C@@H](O)[C@]3(O)C(=O)C(C)=C[C@H]3[C@@]2(O)[C@H](C)[C@H]1OC(=O)/C=C/c1ccccc1` are greater than 34 nM and greater than 34 nM.
In the case of `C=C(C)[C@@]12O[C@@]3(/C=C/C=C/C=C/CCC)O[C@@H]1[C@@H]1[C@@H]4O[C@]4(CO)[C@@H](O)[C@]4(O)C(=O)C(C)=C[C@H]4[C@@]1(O3)[C@H](C)[C@H]2OC(=O)/C=C/c1ccccc1`, the EC50 in assay [1] worked out at 3.7 nM. Further, in the assay on MT4, the IC50 was greater than 34 nM.
In the case of `C=C(C)[C@@]12O[C@@]3(/C=C/C=C/C=C/CCC)O[C@@H]1[C@@H]1[C@@H]4O[C@]4(CO)[C@@H](O)[C@]4(O)C(=O)C(C)=C[C@H]4[C@@]1(O3)[C@H](C)[C@H]2OC(=O)/C=C/c1ccc(O)cc1`, the EC50 in assay [1] was determined as 1.6 nM. Also, the IC50 with MT4 is greater than 34 nM.
In the same order, the values of `C=C(C)[C@@]12O[C@@]3(/C=C/C=C/CCCCC)O[C@@H]1[C@@H]1[C@@H]4O[C@]4(CO)[C@@H](O)[C@]4(O)C(=O)C(C)=C[C@H]4[C@@]1(O3)[C@H](C)[C@H]2OC(=O)/C=C/c1ccc(O)c(OC)c1` are 1.5 nM and greater than 34 nM.
In the same order, the values of `C=C(C)[C@@]12O[C@@]3(/C=C/C=C/CCCCC)O[C@@H]1[C@@H]1[C@@H]4O[C@]4(CO)[C@@H](O)[C@]4(O)C(=O)C(C)=C[C@H]4[C@@]1(O3)[C@H](C)[C@H]2OC(=O)/C=C/c1ccccc1` are 2.2 nM and greater than 34 nM.
Taken in the same sequence, the figures for `C=C(C)[C@@]12O[C@@]3(/C=C/C=C/CCCCC)O[C@@H]1[C@@H]1[C@@H]4O[C@]4(CO)[C@@H](O)[C@]4(O)C(=O)C(C)=C[C@H]4[C@@]1(O3)[C@H](C)[C@H]2OC(=O)/C=C/c1ccc(O)cc1` were 7.7 nM and greater than 34 nM.
With `C=C(C)[C@@]12O[C@@]3(/C=C/C=C/CCCCC)O[C@@H]1[C@@H]1[C@@H]4O[C@]4(CO)[C@@H](O)[C@]4(O)C(=O)C(C)=C[C@H]4[C@@]1(O3)[C@H](C)[C@H]2OC(=O)c1ccccc1` [GNIDILATIDIN], the EC50 in assay [1] stood at 1.9 nM. Moreover, the IC50 with MT4 was greater than 34 nM.

The EC50 is the midpoint of the concentration-response curve. What is called IC50 is the concentration that gives 50% inhibition.
